Assay results from patent US12485132B2, “GPX4 inhibitors and senolytic compounds and uses thereof” (Rubedo Life Sciences, Inc., priority 2023, dated 2025).

Test system: senescent HEPG2 cells
Assay: Senescence assay: viability of senescent HEPG2 cells
Type: cell-based
Conditions: Homo sapiens, 24-72 hours incubation, viability by CellTiter-Glo or XTT, read-out: Absolute IC50 average HEPG2_SEN IC50
Method: Cells were maintained in DMEM media (high glucose, 4 mM L-glutamine, no sodium pyruvate) supplemented with 10% fetal bovine serum in a humidified incubator at 37° C. with 5% carbon dioxide. Senescence was induced via treatment with a sublethal concentration of chemotherapy (bleomycin, gemcitabine, doxorubicin, 5-fluorouridine), followed by a rest period without chemotherapy similarly to what is reported by others in the field (e.g., Aoshiba et al., 2003 Eur Respir J 22:436-443). Senescence was qualified by low EdU (5-ethynyl-2′-deoxyuridine) incorporation and high SA-β-Gal (senescence-associated beta-galactosidase) staining compared to proliferating untreated cells. Senescent cells were plated into 96-well plates at a density of 5-15,000 cells/well. The next day, compounds were added in duplicate across ten different concentrations spanning roughly four Log10 units. Cells were incubated with the compounds for 24-72 hours, at which point viability was quantified using CellTiter-Glo (Promega) or XTT (R&D Systems). The viability for treated cells was determined relative to untreated control cells. The log of the compound concentration vs. normalized mean viability was fit to a four parameters Hill function with variable slope. The bottom was constrained to be greater than zero. The X mean value for Y=50 was interpolated to determine the absolute IC50. The results in Table 2 indicate that many of the compounds are active in cells and can induce a dose dependent decrease in the viability of senescent HEPG2 and A549 cells.

Structure (SMILES)	IC50 [µM]
C#CC(F)(F)[C@]1(O)CC[C@H]2[C@@H]3CCC4=C/C(=N\OCCOC)CCC4=C3[C@@H](c3ccc(C4CC4)cc3)C[C@@]21C [Compound 2, (8S,11R,13S,14S,17S,Z)-11-(4-cyclopropylphenyl)-17-(1,1-difluoroprop-2-yn-1-yl)-17-hydroxy-13-methyl-1,2,6,7,8,11,12,13,14,15,16,17-dodecahydro-3H-cyclopenta[a]phenanthren-3-one O-(2-methoxyethyl)oxime]	0.01 to 0.1
C#CC(F)(F)[C@]1(O)CC[C@H]2[C@@H]3CCC4=C/C(=N/OCCOC)CCC4=C3[C@@H](c3ccc(C4CC4)cc3)C[C@@]21C [Compound 3, (8S,11R,13S,14S,17S,E)-11-(4-cyclopropylphenyl)-17-(1,1-difluoroprop-2-yn-1-yl)-17-hydroxy-13-methyl-1,2,6,7,8,11,12,13,14,15,16,17-dodecahydro-3H-cyclopenta[a]phenanthren-3-one O-(2-methoxyethyl)oxime]	0.01 to 0.1
C#CC(F)(F)[C@]1(O)CC[C@H]2[C@@H]3CCC4=C/C(=N/O[C@H]5C[C@H](O)[C@H](O)[C@H](C)O5)CCC4=C3[C@H](c3ccc(C4CC4)cc3)C[C@@]21C [Compound 5, (8S,11S,13S,14S,17S,E)-11-(4-cyclopropylphenyl)-17-(1,1-difluoroprop-2-yn-1-yl)-17-hydroxy-13-methyl-1,2,6,7,8,11,12,13,14,15,16,17-dodecahydro-3H-cyclopenta[a]phenanthren-3-one O-((2S,4S,5S,6S)-4,5-dihydroxy-6-methyltetrahydro-2H-pyran-2-yl) oxime]	0.01 to 0.1
C#CC(F)(F)[C@]1(O)CC[C@H]2[C@@H]3CCC4=C/C(=N\O[C@H]5C[C@H](O)[C@H](O)[C@H](C)O5)CCC4=C3[C@H](c3ccc(C4CC4)cc3)C[C@@]21C [Compound 6, (8S,11S,13S,14S,17S,Z)-11-(4-cyclopropylphenyl)-17-(1,1-difluoroprop-2-yn-1-yl)-17-hydroxy-13-methyl-1,2,6,7,8,11,12,13,14,15,16,17-dodecahydro-3H-cyclopenta[a]phenanthren-3-one O-((2S,4S,5S,6S)-4,5-dihydroxy-6-methyltetrahydro-2H-pyran-2-yl) oxime]	0.0001 to 0.01
C#CC(F)(F)[C@]1(O)CC[C@H]2[C@@H]3CCC4=C/C(=N\OCCOCCO)CCC4=C3[C@@H](c3ccc(C4CC4)cc3)C[C@@]21C [Compound 11, (8S,11R,13S,14S,17S,Z)-11-(4-cyclopropylphenyl)-17-(1,1-difluoroprop-2-yn-1-yl)-17-hydroxy-13-methyl-1,2,6,7,8,11,12,13,14,15,16,17-dodecahydro-3H-cyclopenta[a]phenanthren-3-one O-(2-(2-hydroxyethoxy)ethyl)oxime]	0.0001 to 0.01
C#CC(F)(F)[C@]1(O)CC[C@H]2[C@@H]3CCC4=C/C(=N/OCCOCCO)CCC4=C3[C@@H](c3ccc(C4CC4)cc3)C[C@@]21C [Compound 12, (8S,11R,13S,14S,17S,E)-11-(4-cyclopropylphenyl)-17-(1,1-difluoroprop-2-yn-1-yl)-17-hydroxy-13-methyl-1,2,6,7,8,11,12,13,14,15,16,17-dodecahydro-3H-cyclopenta[a]phenanthren-3-one O-(2-(2-hydroxyethoxy)ethyl)oxime]	0.0001 to 0.01
C#CC(F)(F)[C@]1(O)CC[C@H]2[C@@H]3CCC4=C/C(=N\OCCOCCOCCOC)CCC4=C3[C@@H](c3ccc(C4CC4)cc3)C[C@@]21C [Compound 14, (8S,11R,13S,14S,17S,Z)-11-(4-cyclopropylphenyl)-17-(1,1-difluoroprop-2-yn-1-yl)-17-hydroxy-13-methyl-1,2,6,7,8,11,12,13,14,15,16,17-dodecahydro-3H-cyclopenta[a]phenanthren-3-one O-(2-(2-(2-methoxyethoxy)ethoxy)ethyl)oxime]	0.0001 to 0.01
C#CC(F)(F)[C@]1(O)CC[C@H]2[C@@H]3CCC4=C/C(=N/OCCOCCOCCOC)CCC4=C3[C@@H](c3ccc(C4CC4)cc3)C[C@@]21C [Compound 15, (8S,11R,13S,14S,17S,E)-11-(4-cyclopropylphenyl)-17-(1,1-difluoroprop-2-yn-1-yl)-17-hydroxy-13-methyl-1,2,6,7,8,11,12,13,14,15,16,17-dodecahydro-3H-cyclopenta[a]phenanthren-3-one O-(2-(2-(2-methoxyethoxy)ethoxy)ethyl)oxime]	0.01 to 0.1
C#CC(F)(F)[C@]1(O)CC[C@H]2[C@@H]3CCC4=C/C(=N/O[C@@H]5O[C@@H](C)[C@@H](O)[C@@H](O)[C@@H]5O)CCC4=C3[C@@H](c3ccc(C4CC4)cc3)C[C@@]21C [Compound 20, (8S,11R,13S,14S,17S,E)-11-(4-cyclopropylphenyl)-17-(1,1-difluoroprop-2-yn-1-yl)-17-hydroxy-13-methyl-1,2,6,7,8,11,12,13,14,15,16,17-dodecahydro-3H-cyclopenta[a]phenanthren-3-one O-((2S,3S,4R,5S,6S)-3,4,5-trihydroxy-6-methyltetrahydro-2H-pyran-2-yl) oxime]	0.0001 to 0.01
C#CC(F)(F)[C@]1(O)CC[C@H]2[C@@H]3CCC4=C/C(=N/N)CCC4=C3[C@H](c3ccc(C4CC4)cc3)C[C@@]21C [Compound 27, (8S,11S,13S,14S,17S,E)-11-(4-cyclopropylphenyl)-17-(1,1-difluoroprop-2-yn-1-yl)-3-hydrazineylidene-13-methyl-2,3,6,7,8,11,12,13,14,15,16,17-dodecahydro-1H-cyclopenta[a]phenanthren-17-ol]	0.01 to 0.1
C#CC(F)(F)[C@]1(O)CC[C@H]2[C@@H]3CCC4=C/C(=N/NC(=O)O[C@@H]5O[C@H](COC(C)=O)[C@H](OC(C)=O)[C@H](OC(C)=O)[C@H]5OC(C)=O)CCC4=C3[C@H](c3ccc(C4CC4)cc3)C[C@@]21C [Compound 28, (2R,3S,4S,5R,6S)-2-(acetoxymethyl)-6-((2-((8S,11S,13S,14S,17S,E)-11-(4-cyclopropylphenyl)-17-(1,1-difluoroprop-2-yn-1-yl)-17-hydroxy-13-methyl-1,2,6,7,8,11,12,13,14,15,16,17-dodecahydro-3H-cyclopenta[a]phenanthren-3-ylidene)hydrazine-1-carbonyl)oxy)tetrahydro-2H-pyran-3,4,5-triyl triacetate]	0.01 to 0.1
C#CC(F)(F)[C@]1(O)CC[C@H]2[C@@H]3CCC4=C/C(=N/NC(=O)O[C@@H]5O[C@@H](C)[C@@H](OC(C)=O)[C@@H](OC(C)=O)[C@@H]5OC(C)=O)CCC4=C3[C@H](c3ccc(C4CC4)cc3)C[C@@]21C [Compound 30, (2S,3S,4R,5R,6S)-2-((2-((8S,11S,13S,14S,17S,E)-11-(4-cyclopropylphenyl)-17-(1,1-difluoroprop-2-yn-1-yl)-17-hydroxy-13-methyl-1,2,6,7,8,11,12,13,14,15,16,17-dodecahydro-3H-cyclopenta[a]phenanthren-3-ylidene)hydrazine-1-carbonyl)oxy)-6-methyltetrahydro-2H-pyran-3,4,5-triyl triacetate]	0.0001 to 0.01
C#CC(F)(F)[C@]1(O)CC[C@H]2[C@@H]3CCC4=C/C(=N/NC(=O)O[C@@H]5O[C@@H](C)[C@@H](O)[C@@H](O)[C@@H]5O)CCC4=C3[C@H](c3ccc(C4CC4)cc3)C[C@@]21C [Compound 31, (2S,3S,4R,5S,6S)-3,4,5-trihydroxy-6-methyltetrahydro-2H-pyran-2-yl (E)-2-((8S,11S,13S,14S,17S)-11-(4-cyclopropylphenyl)-17-(1,1-difluoroprop-2-yn-1-yl)-17-hydroxy-13-methyl-1,2,6,7,8,11,12,13,14,15,16,17-dodecahydro-3H-cyclopenta[a]phenanthren-3-ylidene)hydrazine-1-carboxylate]	0.01 to 0.1
C#CC(F)(F)[C@]1(O)CC[C@H]2[C@@H]3CCC4=C/C(=N/NC(=O)CN)CCC4=C3[C@H](c3ccc(C4CC4)cc3)C[C@@]21C [Compound 35, 2-amino-N′-((8S,11S,13S,14S,17S,E)-11-(4-cyclopropylphenyl)-17-(1,1-difluoroprop-2-yn-1-yl)-17-hydroxy-13-methyl-1,2,6,7,8,11,12,13,14,15,16,17-dodecahydro-3H-cyclopenta[a]phenanthren-3-ylidene)acetohydrazide]	0.0001 to 0.01
C#CC(F)(F)[C@]1(O)CC[C@H]2[C@@H]3CCC4=C/C(=N/NC(=O)COC)CCC4=C3[C@H](c3ccc(C4CC4)cc3)C[C@@]21C [Compound 36, N′-((8S,11S,13S,14S,17S,E)-11-(4-cyclopropylphenyl)-17-(1,1-difluoroprop-2-yn-1-yl)-17-hydroxy-13-methyl-1,2,6,7,8,11,12,13,14,15,16,17-dodecahydro-3H-cyclopenta[a]phenanthren-3-ylidene)-2-methoxyacetohydrazide]	0.0001 to 0.01
C#CC(F)(F)[C@]1(O)CC[C@H]2[C@@H]3CCC4=C/C(=N/NC(=O)CO)CCC4=C3[C@H](c3ccc(C4CC4)cc3)C[C@@]21C [Compound 37, N′-((8S,11S,13S,14S,17S,E)-11-(4-cyclopropylphenyl)-17-(1,1-difluoroprop-2-yn-1-yl)-17-hydroxy-13-methyl-1,2,6,7,8,11,12,13,14,15,16,17-dodecahydro-3H-cyclopenta[a]phenanthren-3-ylidene)-2-hydroxyacetohydrazide]	0.0001 to 0.01
